Data as given in the NIST ThermoML archive (doi:10.1016/j.fluid.2012.03.016).

Conditions: Pendant drop shape

CCC(=O)[O-].C[N+](C)(C)CCO [cholinium propanoate]
Conditions	surface tension liquid-gas [mN/m]
294 K	34.6
302.6 K	33.3
313.7 K	32.6
324.1 K	32.3
333.8 K	31.7
343.4 K	31.2
354.5 K	30.9
373.4 K	29.5
392.6 K	28.6

C/C=C(\C)C(=O)[O-].C[N+](C)(C)CCO
Conditions	surface tension liquid-gas [mN/m]
294 K	31.6
303.9 K	30.7
314.2 K	30.7
323.9 K	30.9
333.5 K	30.2
338 K	29.8
340.1 K	29.9
346.2 K	29.9
348.2 K	28.5
357.4 K	28
362.5 K	28.2
373 K	27.6
379.5 K	26.1
391.8 K	26.4

C[N+](C)(C)CCO.O=C([O-])CCC(=O)O [2-hydroxy-N,N,N-trimethylethanaminium 3-carboxypropanoate]
Conditions	surface tension liquid-gas [mN/m]
308.2 K	40.7
313.9 K	40.4
319.2 K	40.1
324 K	39.5
328.5 K	39.5
333.6 K	38.9
339.4 K	38.4
